# Data taken from the supplement of paper PMC10307832.
# Legend:
# Test in all cases: relative viability (nuclei count vs DMSO), 5 days (fraction); higher = more cells survive
# NCI-H1651 = system: NCI-H1651
# Method in brief: (§1)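 Relative viability divides the nuclei count in treated wells by that in vehicle wells. Lung cancer cell lines were seeded in 1536-well plates, dosed by pin tool the next day, and fixed and stained after 5 days in one step with final 0.05% Triton X-100, 1% formaldehyde and 1 ug/ml Hoechst. Dosing was a single drug or a fixed anchor-drug dose plus five library-drug doses (not always all listed) in √10 steps, and values are medians of duplicate plates imaged at 4×.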
# NCI-H1734 = system: NCI-H1734
# Method in brief: as §1
# NCI-H1755 = system: NCI-H1755
# Method in brief: as §1
# NCI-H2347 = system: NCI-H2347
# Method in brief: as §1
# NCI-H3122 = system: NCI-H3122
# Method in brief: as §1
# NCI-H441 = system: NCI-H441
# Method in brief: as §1
# NCI-H596 = system: NCI-H596
# Method in brief: as §1
# NCI-H727 = system: NCI-H727
# Method in brief: as §1
# PC-3 [JPC-3] = system: PC-3 [JPC-3]
# Method in brief: as §1
# RERF-LC-KJ = system: RERF-LC-KJ
# Method in brief: as §1
# SK-LU-1 = system: SK-LU-1
# Method in brief: as §1
# UMC-11 = system: UMC-11
# Method in brief: as §1
structure (smiles),measurement,setting,value
Cc1csc(=NC2CCCCC2)n1/N=C/c1ccc(O)c(O)c1O [MIM1] + COc1cc2c(Oc3ccc(NC(=O)C4(C(=O)Nc5ccc(F)cc5)CC4)cc3F)ccnc2cc1OCCCN1CCOCC1 [Foretinib] (partner 0.25 µM),relative viability,NCI-H1651; first compound 6.325 µM,0.648
same,relative viability,NCI-H1651; first compound 20 µM,0.652
same,relative viability,NCI-H1734; first compound 0.2 µM,0.884
same,relative viability,NCI-H1734; first compound 0.6325 µM,0.886
same,relative viability,NCI-H1734; first compound 2 µM,0.772
same,relative viability,NCI-H1734; first compound 6.325 µM,0.478
same,relative viability,NCI-H1734; first compound 20 µM,0.255
same,relative viability,NCI-H1755; first compound 0.2 µM,0.882
same,relative viability,NCI-H1755; first compound 0.6325 µM,0.927
same,relative viability,NCI-H1755; first compound 2 µM,0.902
same,relative viability,NCI-H1755; first compound 6.325 µM,0.72
same,relative viability,NCI-H1755; first compound 20 µM,0.563
same,relative viability,NCI-H2347; first compound 0.2 µM,0.953
same,relative viability,NCI-H2347; first compound 0.6325 µM,0.568
same,relative viability,NCI-H2347; first compound 2 µM,0.567
same,relative viability,NCI-H2347; first compound 6.325 µM,1.18
same,relative viability,NCI-H2347; first compound 20 µM,0.445
same,relative viability,NCI-H3122; first compound 0.2 µM,0.891
same,relative viability,NCI-H3122; first compound 0.6325 µM,1.03
same,relative viability,NCI-H3122; first compound 2 µM,1.03
same,relative viability,NCI-H3122; first compound 6.325 µM,0.683
same,relative viability,NCI-H3122; first compound 20 µM,0.64
same,relative viability,NCI-H441; first compound 0.2 µM,1.17
same,relative viability,NCI-H441; first compound 2 µM,1.01
same,relative viability,NCI-H441; first compound 6.325 µM,0.617
same,relative viability,NCI-H441; first compound 20 µM,0.256
same,relative viability,NCI-H596; first compound 0.2 µM,0.886
same,relative viability,NCI-H596; first compound 0.6325 µM,0.741
same,relative viability,NCI-H596; first compound 2 µM,0.858
same,relative viability,NCI-H596; first compound 6.325 µM,0.848
same,relative viability,NCI-H596; first compound 20 µM,0.636
same,relative viability,NCI-H727; first compound 0.2 µM,0.948
same,relative viability,NCI-H727; first compound 0.6325 µM,0.883
same,relative viability,NCI-H727; first compound 2 µM,0.732
same,relative viability,NCI-H727; first compound 6.325 µM,0.968
same,relative viability,NCI-H727; first compound 20 µM,0.439
same,relative viability,PC-3 [JPC-3]; first compound 0.2 µM,1.01
same,relative viability,PC-3 [JPC-3]; first compound 0.6325 µM,1.05
same,relative viability,PC-3 [JPC-3]; first compound 2 µM,1.01
same,relative viability,PC-3 [JPC-3]; first compound 6.325 µM,0.763
same,relative viability,PC-3 [JPC-3]; first compound 20 µM,0.531
same,relative viability,RERF-LC-KJ; first compound 0.2 µM,0.887
same,relative viability,RERF-LC-KJ; first compound 0.6325 µM,0.808
same,relative viability,RERF-LC-KJ; first compound 2 µM,0.803
same,relative viability,RERF-LC-KJ; first compound 6.325 µM,0.637
same,relative viability,RERF-LC-KJ; first compound 20 µM,0.24
same,relative viability,SK-LU-1; first compound 0.2 µM,0.849
same,relative viability,SK-LU-1; first compound 0.6325 µM,0.821
same,relative viability,SK-LU-1; first compound 2 µM,0.849
same,relative viability,SK-LU-1; first compound 6.325 µM,0.75
same,relative viability,SK-LU-1; first compound 20 µM,0.788
same,relative viability,UMC-11; first compound 0.2 µM,1.07
same,relative viability,UMC-11; first compound 2 µM,1.2
same,relative viability,UMC-11; first compound 6.325 µM,0.703
same,relative viability,UMC-11; first compound 20 µM,0.335
